Results reported in US10788496B2, “MEK1 mutation conferring resistance to RAF and MEK inhibitors” (Dana-Farber Cancer Institute, Inc., priority 2010, dated 2020).

What was measured:
[1] = system: metastatic melanoma with BRAF V600E mutation; assay: Case of a patient with BRAF V600E metastatic melanoma treated with PLX4032 in a clinical trial; assay type: in vivo, human; conditions: single patient
Procedure: The patient was a person who was diagnosed with metastatic melanoma in February 2009. […] They were treated with several therapeutic regimens with minimal clinical response. By October 2009, the patient had developed numerous subcutaneous metastatic deposits.
In late February 2010, after 4 months of therapy with PLX4032, the patient rapidly developed new subcutaneous nodules all over their body and PLX4032 was stopped. At this point, they provided written informed consent and a percutaneous core biopsy of a recurrent subcutaneous nodule on the chest was obtained. In order to determine possible mechanisms of resistance to PLX4032 in this tumor, the exons from 138 cancer genes from this sample were sequenced using massively parallel sequencing. The patient continued to have rapid progression of their disease and died on hospice in March 2010.

[2] = system: melanoma with BRAF V600E mutations; conditions: cited from earlier work
[3] = system: A375 cells expressing the MEK1 C121S mutation; assay: Growth inhibition of A375 melanoma cells transfected with MEK1 C121S mutant; assay type: cell-based; conditions: for resistance of cells to the inhibitor (in words): A375 cells expressing MEK1 C121S, growth inhibition; for fold greater GI-50 value of MEK1 C121S cells: versus wild-type A375 cells or A375 cells expressing MEK-WT (for AZD6244 also MEK-DD)
Excerpt: FIGS. 1A and 1B are graphs showing the percent growth inhibition of A375 melanoma cells treated with increasing concentrations (in μM) of either the BRAF inhibitor PLX4720 (FIG. 1A) or the MEK1 inhibitor AZD6244 (FIG. 1B), wherein the A375 cells were either untransfected (A375), transfected with wild-type MEK1 (MEK-WT), transfected with the MEK1 C121S mutant (MEK-C121S) or transfected with a constitutively active MEK variant (MEK-DD).
It has previously been shown that mutations proximal to the C-helix of MEK1 can confer resistance to BRAF inhibition by PLX4032 by upregulating intrinsic MEK1 kinase activity (Emery, C. M. et al., (2009) Proc. Natl. Acad. Sci. USA 106:20411-20416). Therefore, it seemed plausible that the MEK1 C121 mutation, which is also located proximal to the C-helix, might have caused resistance to PLX4032 in the patient's recurrent tumor. To test this, the C121S was introduced mutation into the sequence of wild-type MEK1 and the mutant cDNA was expressed in the A375 melanoma cell line, which harbors a BRAF V600E mutation. To introduce the […] mutation into the wild-type MEK1 sequence, MEK1 site-directed mutagenesis was performed as previously described (Emery, C. M. et al., (2009) Proc. Natl. Acad. Sci. USA […]). Briefly, MEK1 cDNA was amplified by PCR and site-directed mutagenesis was conducted using Quick-Change II (Stratagene) as per the manufacturer's instructions. As controls, the wild-type MEK1 sequence or a constitutively active variant of MEK1, referred to as MEK1-DD, was expressed in the A375 melanoma cells.
To examine the effect of the MEK1 C121S mutation on responsiveness of the A375 melanoma cells to inhibitors, A375 cells (either untransfected cells, or cells transfected with either the wild-type MEK1, the C121S mutant MEK1, or the constitutively active variant MEK1-DD) were treated with increasing amounts of either the BRAF inhibitor PLX4720 (purchased from Symansis, Inc.), which is a compound closely related to PLX4032, or the MEK1 inhibitor AZD6244 (purchased from Selleck Chemical Co., Ltd.). The results are shown in the graphs of FIGS. 1A (PLX4720 treatment) and 1B (AZD6244 treatment).

MEK = conditions: cited from earlier work
[4] = system: human colon cancer xenograft; conditions: cited from earlier work

Structure (SMILES): CCCS(=O)(=O)Nc1ccc(F)c(C(=O)c2c[nH]c3ncc(-c4ccc(Cl)cc4)cc23)c1F [PLX4032]
- duration of therapy until new subcutaneous nodules developed (relapse) [1]: 4 months
- tumor response (in words) ([1]; after 15 weeks of therapy): near complete regression of all visible tumor nodules
- time to visible partial response ([1]; from starting PLX4032): ≤ 2 weeks
- patients with at least 30% tumor response by RECIST criteria ([2]; Phase I, 19 of 27 patients, oral): 70%
- average time to relapse (resistance) ([2]; patients treated with PLX4032): 9 months

Structure (SMILES): CCCS(=O)(=O)Nc1ccc(F)c(C(=O)c2c[nH]c3ncc(Cl)cc23)c1F [PLX4720]
- resistance of cells to the inhibitor (in words) [3]: strongly resistant
- fold greater GI-50 value of MEK1 C121S cells [3]: 100 fold

Structure (SMILES): Cn1cnc2c(F)c(Nc3ccc(Br)cc3Cl)c(C(=O)NOCCO)cc21 [AZD6244]
- resistance of cells to the inhibitor (in words) [3]: strongly resistant
- fold greater GI-50 value of MEK1 C121S cells [3]: ~1000 fold

Structure (SMILES): O=C(NOCC1CC1)c1ccc(F)c(F)c1Nc1ccc(I)cc1Cl [CI-1040]
- MEK inhibition in cell-based assays (in words) (MEK): inhibited MEK
- effect on xenograft growth (in words) [4]: reduced human colon cancer xenograft growth
